For the first test, the system named is IL-1β release from THP-1 cells. Briefly: IL-1β Release Assay (Alternate Method), THP-1 cells. Conditions: at 0.3 μM; THP-1 cells. The test is classed as cell-based, human. A digest of the protocol: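 THP-1 cells differentiated 16 h with 100 ng/mL LPS plus 100 ng/mL IFN-γ, reprimed 2 h with 100 ng/mL LPS, pretreated 30 min with compound, then challenged 45 min with 250 uM BzATP (final). Supernatant IL-1β quantified by ELISA; percent inhibition from background-adjusted levels versus untreated cells.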
For `O=C(CC12CC3CC(CC(C3)C1)C2)Nc1ncnc2c1CCN(C(=O)c1ccc(C(F)(F)F)cc1)C2` [Compound 243], the IL-1β % inhibition entry was “+++ (compound exhibited 50-75% inhibition at 0.3 μM)”.

Turning to `CC(C)(C(=O)Nc1ncnc2c1CCN(S(=O)(=O)Cc1ccccc1)C2)C12CC3CC(CC(C3)C1)C2` [Compound 353], the IL-1β % inhibition entry is recorded as “+ (compound exhibited 0-25% inhibition at 0.3 μM)”.

In the case of `COc1ccc(OC)c(CC(=O)N2CCc3c(ncnc3NC(=O)CC34CC5CC(CC(C5)C3)C4)C2)c1` [Compound 239], the IL-1β % inhibition entry was “++ (compound exhibited 25-50% inhibition at 0.3 μM)”.

For the compound `O=C(CC12CC3CC(CC(C3)C1)C2)Nc1ncnc2c1CCN(C(=O)COCc1ccccc1)C2` [Compound 256], the IL-1β % inhibition result is given as “+++ (compound exhibited 50-75% inhibition at 0.3 μM)”.

Regarding `CCc1ccc(C(=O)N2CCc3c(ncnc3NC(=O)CC34CC5CC(CC(C5)C3)C4)C2)cc1` [Compound 229], the IL-1β % inhibition result was “+++ (compound exhibited 50-75% inhibition at 0.3 μM)”.

Take `COc1ccc(CN2CCc3c(ncnc3NC(=O)CC34CC5CC(CC(C5)C3)C4)C2)c(OC)c1` [Compound 30]: the IL-1β % inhibition result is on record as “++++ (compound exhibited 75% or greater inhibition at 0.3 μM)”.

As for `N#Cc1ccc(S(=O)(=O)N2CCc3c(ncnc3NC(=O)CC34CC5CC(CC(C5)C3)C4)C2)cc1` [Compound 167], the IL-1β % inhibition result is “++ (compound exhibited 25-50% inhibition at 0.3 μM)”.

For the compound `O=C(CC12CC3CC(CC(C3)C1)C2)Nc1ncnc2c1CCN(Cc1ccc(F)c(F)c1)C2` [Compound 322], the IL-1β % inhibition result is listed as “+ (compound exhibited 0-25% inhibition at 0.3 μM)”.

Consider `O=C(CC12CC3CC(CC(C3)C1)C2)Nc1ncnc2c1CCN(Cc1c(F)cccc1C(F)(F)F)C2` [Compound 111], for which the IL-1β % inhibition entry is “++ (compound exhibited 25-50% inhibition at 0.3 μM)”.

Consider `Cc1cccc(C(=O)N2CCc3c(ncnc3NC(=O)CC34CC5CC(C)(CC(C)(C5)C3)C4)C2)c1` [Compound 382], for which the IL-1β % inhibition entry is listed as “++ (compound exhibited 25-50% inhibition at 0.3 μM)”.

In the case of `Cc1ccc(F)cc1S(=O)(=O)N1CCc2c(ncnc2NC(=O)CC23CC4CC(CC(C4)C2)C3)C1` [Compound 212], the IL-1β % inhibition entry is recorded as “+++ (compound exhibited 50-75% inhibition at 0.3 μM)”.

On to `COc1ccccc1CCC(=O)Nc1ncnc2c1CCN(Cc1ccccc1)C2` [Compound 24], for which the IL-1β % inhibition result is given as “+ (compound exhibited 0-25% inhibition at 0.3 μM)”.

Take `Cc1ccccc1CN1CCc2c(ncnc2NC(=O)CC23CC4CC(C)(CC(C)(C4)C2)C3)C1` [Compound 372]: the IL-1β % inhibition entry is “+++ (compound exhibited 50-75% inhibition at 0.3 μM)”.

Take `O=C(CC1CCCCCC1)Nc1ncnc2c1CCN(CC1CCCC1)C2` [Compound 128]: the IL-1β % inhibition entry was “+ (compound exhibited 0-25% inhibition at 0.3 μM)”.

Take `CC12CC3CC(C)(C1)CC(CC(=O)Nc1ncnc4c1CCN(Cc1ccc(F)cc1F)C4)(C3)C2` [Compound 374]: the IL-1β % inhibition entry is recorded as “++ (compound exhibited 25-50% inhibition at 0.3 μM)”.

For `O=C(CC12CC3CC(CC(C3)C1)C2)Nc1ncnc2c1CCN(Cc1ccccc1C(F)(F)F)C2` [Compound 120], the IL-1β % inhibition entry is reported as “+ (compound exhibited 0-25% inhibition at 0.3 μM)”.

For the compound `O=C(CC12CC3CC(CC(C3)C1)C2)Nc1ncnc2c1CCN(S(=O)(=O)c1cccc(C(F)(F)F)c1)C2` [Compound 154], the IL-1β % inhibition entry is reported as “++++ (compound exhibited 75% or greater inhibition at 0.3 μM)”.

As to `Cc1ccc(C)c(CN2CCc3c(ncnc3NC(=O)CC34CC5CC(CC(C5)C3)C4)C2)c1` [Compound 32], the IL-1β % inhibition entry is given as “+ (compound exhibited 0-25% inhibition at 0.3 μM)”.

Turning to `Cc1cc(C(=O)N2CCc3c(ncnc3NC(=O)CC34CC5CC(CC(C5)C3)C4)C2)nn1C` [Compound 284], the IL-1β % inhibition entry was “++ (compound exhibited 25-50% inhibition at 0.3 μM)”.

Consider `CC(C)(C(=O)Nc1ncnc2c1CCN(C(=O)C1CCCCC1)C2)C12CC3CC(CC(C3)C1)C2` [Compound 366], for which the IL-1β % inhibition entry is listed as “+ (compound exhibited 0-25% inhibition at 0.3 μM)”.

Turning to `COc1ccccc1CCC(=O)Nc1ncnc2c1CCN(Cc1c[nH]cn1)C2` [Compound 135], the IL-1β % inhibition result is “+ (compound exhibited 0-25% inhibition at 0.3 μM)”.

Consider `O=C(CC12CC3CC(CC(C3)C1)C2)Nc1ncnc2c1CCN(C(=O)C1CC1)C2` [Compound 260], for which the IL-1β % inhibition entry is reported as “+++ (compound exhibited 50-75% inhibition at 0.3 μM)”.

In the case of `CC12CC3(C)CC(C)(C1)CC(C(=O)Nc1ncnc4c1CCN(Cc1ccccc1)C4)(C2)C3` [Compound 346], the IL-1β % inhibition entry is listed as “+ (compound exhibited 0-25% inhibition at 0.3 μM)”.

On to `O=C(CC12CC3CC(CC(C3)C1)C2)Nc1ncnc2c1CCN(Cc1ccc(F)cc1Cl)C2` [Compound 326], for which the IL-1β % inhibition entry was “++ (compound exhibited 25-50% inhibition at 0.3 μM)”.

On to `O=C(CC12CC3CC(CC(C3)C1)C2)Nc1ncnc2c1CCN(S(=O)(=O)Cc1cc(Cl)cc(Cl)c1)C2` [Compound 186], for which the IL-1β % inhibition result is “++++ (compound exhibited 75% or greater inhibition at 0.3 μM)”.

In the case of `O=C(CC12CC3CC(CC(C3)C1)C2)Nc1ncnc2c1CCN(Cc1c[nH]cn1)C2` [Compound 82], the IL-1β % inhibition result is given as “+++ (compound exhibited 50-75% inhibition at 0.3 μM)”.

Consider `COc1cc(CN2CCc3c(ncnc3NC(=O)CC34CC5CC(CC(C5)C3)C4)C2)ccc1F` [Compound 103], for which the IL-1β % inhibition result is “+ (compound exhibited 0-25% inhibition at 0.3 μM)”.

For `COc1ccc(S(=O)(=O)N2CCc3c(ncnc3NC(=O)CC34CC5CC(CC(C5)C3)C4)C2)cc1` [Compound 149], the IL-1β % inhibition result is “+++ (compound exhibited 50-75% inhibition at 0.3 μM)”.

Regarding `O=C(CC12CC3CC(CC(C3)C1)C2)Nc1ncnc2c1CCN(S(=O)(=O)c1cccc(OC(F)(F)F)c1)C2` [Compound 161], the IL-1β % inhibition entry was “++ (compound exhibited 25-50% inhibition at 0.3 μM)”.

On to `O=C(CC12CC3CC(CC(C3)C1)C2)Nc1ncnc2c1CCN(Cc1ccc3cc[nH]c3c1)C2` [Compound 332], for which the IL-1β % inhibition result is on record as “+++ (compound exhibited 50-75% inhibition at 0.3 μM)”.

In the case of `O=C(CC12CC3CC(CC(C3)C1)C2)Nc1ncnc2c1CCN(Cc1cccc3c1OC(F)(F)O3)C2` [Compound 90], the IL-1β % inhibition result is “+ (compound exhibited 0-25% inhibition at 0.3 μM)”.

With `COc1ccc(C(=O)N2CCc3c(ncnc3NC(=O)CC34CC5CC(CC(C5)C3)C4)C2)c(OC)c1` [Compound 275], the IL-1β % inhibition entry is given as “+++ (compound exhibited 50-75% inhibition at 0.3 μM)”.

The same test, now with this note: at 0.3 μM; THP-1 cells, BzATP-stimulated.
`CC(C)(C)C(=O)N1CCc2c(ncnc2NC(=O)C23CC4CC(CC(C4)C2)C3)C1` [Compound 424]: the IL-1β % inhibition result was “+ (compound exhibited 0-25% inhibition at 0.3 μM)”.

For `O=C(Nc1ncnc2c1CCN(S(=O)(=O)c1ccc(Oc3ccccn3)cc1)C2)C12CC3CC(CC(C3)C1)C2` [Compound 506], the IL-1β % inhibition result is given as “++++ (compound exhibited 75% or greater inhibition at 0.3 μM)”.

Consider `CC(CCN1CCc2c(ncnc2NC(=O)C23CC4CC(CC(C4)C2)C3)C1)CC(C)(C)C` (centres unmarked) [Compound 552], for which the IL-1β % inhibition entry was “++++ (compound exhibited 75% or greater inhibition at 0.3 μM)”.

Turning to `O=C(Cc1ccccc1Br)N1CCc2c(ncnc2NC(=O)C23CC4CC(CC(C4)C2)C3)C1` [Compound 470], the IL-1β % inhibition result is on record as “+ (compound exhibited 0-25% inhibition at 0.3 μM)”.

Turning to `Cc1noc(C)c1S(=O)(=O)N1CCc2c(ncnc2NC(=O)C23CC4CC(CC(C4)C2)C3)C1` [Compound 503], the IL-1β % inhibition entry was “+ (compound exhibited 0-25% inhibition at 0.3 μM)”.

Regarding `O=C(c1ccccc1C(F)(F)F)N1CCc2c(ncnc2NC(=O)C23CC4CC(CC(C4)C2)C3)C1` [Compound 442], the IL-1β % inhibition result is listed as “++ (compound exhibited 25-50% inhibition at 0.3 μM)”.

`O=C(c1c(F)cccc1Cl)N1CCc2c(ncnc2NC(=O)C23CC4CC(CC(C4)C2)C3)C1` [Compound 444]: the IL-1β % inhibition result was “+ (compound exhibited 0-25% inhibition at 0.3 μM)”.

In the case of `O=C(Nc1ncnc2c1CCN(S(=O)(=O)c1cc(Cl)cc(Cl)c1)C2)C12CC3CC(CC(C3)C1)C2` [Compound 542], the IL-1β % inhibition entry is recorded as “+ (compound exhibited 0-25% inhibition at 0.3 μM)”.

`CCOc1ccc(CN2CCc3c(ncnc3NC(=O)C34CC5CC(CC(C5)C3)C4)C2)cc1` [Compound 630]: the IL-1β % inhibition result is recorded as “++++ (compound exhibited 75% or greater inhibition at 0.3 μM)”.

Take `O=C(Nc1ncnc2c1CCN(Cc1cccc(F)c1)C2)C12CC3CC(CC(C3)C1)C2` [Compound 605]: the IL-1β % inhibition result is on record as “+ (compound exhibited 0-25% inhibition at 0.3 μM)”.

For `O=C(Nc1ncnc2c1CCN(S(=O)(=O)c1ccc(OC(F)F)cc1)C2)C12CC3CC(CC(C3)C1)C2` [Compound 523], the IL-1β % inhibition entry is recorded as “+ (compound exhibited 0-25% inhibition at 0.3 μM)”.

Regarding `O=C(Nc1ncnc2c1CCN(S(=O)(=O)c1ccc(F)cc1Cl)C2)C12CC3CC(CC(C3)C1)C2` [Compound 545], the IL-1β % inhibition result was “++ (compound exhibited 25-50% inhibition at 0.3 μM)”.

In the case of `Cc1ccc2occ(CN3CCc4c(ncnc4NC(=O)C45CC6CC(CC(C6)C4)C5)C3)c(=O)c2c1` [Compound 567], the IL-1β % inhibition result is reported as “++ (compound exhibited 25-50% inhibition at 0.3 μM)”.

Regarding `O=C(Nc1ncnc2c1CCN(Cc1cc3c(cc1Cl)OCO3)C2)C12CC3CC(CC(C3)C1)C2` [Compound 599], the IL-1β % inhibition entry is “+ (compound exhibited 0-25% inhibition at 0.3 μM)”.

As for `O=C(c1ccccc1Cl)N1CCc2c(ncnc2NC(=O)C23CC4CC(CC(C4)C2)C3)C1` [Compound 464], the IL-1β % inhibition entry is “++ (compound exhibited 25-50% inhibition at 0.3 μM)”.

Take `O=C(Nc1ncnc2c1CCN(S(=O)(=O)c1cc(F)ccc1F)C2)C12CC3CC(CC(C3)C1)C2` [Compound 537]: the IL-1β % inhibition entry was “++ (compound exhibited 25-50% inhibition at 0.3 μM)”.

As to `Cc1nn(C)c(C)c1S(=O)(=O)N1CCc2c(ncnc2NC(=O)C23CC4CC(CC(C4)C2)C3)C1` [Compound 531], the IL-1β % inhibition entry is “++ (compound exhibited 25-50% inhibition at 0.3 μM)”.

Regarding `O=C(Nc1ncnc2c1CCN(Cc1ccc(OC(F)(F)F)cc1)C2)C12CC3CC(CC(C3)C1)C2` [Compound 620], the IL-1β % inhibition result is recorded as “++ (compound exhibited 25-50% inhibition at 0.3 μM)”.

The values are drawn from US7297700B2, “Bicycloheteroaryl compounds as P2X7 modulators and uses thereof” (Renovis, Inc., priority 2005, dated 2007).
